Measurements from US20090104240A1, “Dual Drug Formulations For Implantable Medical Devices For Treatment of Vascular Diseases” (Abbott Cardiovascular Systems Inc., priority 2007, published 2009).

Tests used:
inflammation = assay: effect of corticosteroid on inflammation; format: in vivo; settings: super high potency corticosteroid
[1] = tested on: vessel endothelialization; assay: effect of corticosteroid on vessel endothelialization; format: in vivo; settings: super high potency corticosteroid

For `CC1CC2C3CCC4=CC(=O)C=CC4(C)C3(F)C(=O)CC2(C)C1(O)C(=O)CCl` (centres unmarked) [clobetasone], the “effect with regard to inflammation” value (inflammation) was “beneficial effect with regard to inflammation” and the vessel endothelialization [1] was “impairment of vessel endothelialization was observed”.
